Test results taken from ChEMBL document CHEMBL1156327, “Synthesis and biological evaluation of anti-1-amino-2-[18F]fluoro-cyclobutyl-1-carboxylic acid (anti-2-[18F]FACBC) in rat 9L gliosarcoma” (Bioorg Med Chem Lett, 2010).
Values belong to the compound of their own block, whether it stands above or below them.

Tests used:
9L = assay: Cellular uptake in rat 9L cells after 30 mins measured per 0.5 million cells; format: ADME, cell-based; details: 0.5 h
[1] = Drug uptake in rat 9L tumor implanted in Fischer 344 rat after 15 mins relative to control; format: ADME, Neoplasm; details: read-out: Drug uptake
[2] = Drug uptake in rat 9L tumor implanted in Fischer 344 rat after 30 mins relative to control; format: ADME, Neoplasm; details: read-out: Drug uptake
[3] = Drug uptake in rat 9L tumor implanted in Fischer 344 rat after 60 mins relative to control; format: ADME, Neoplasm; details: read-out: Drug uptake
[4] = Drug uptake in rat 9L tumor implanted in Fischer 344 rat after 120 mins relative to control; format: ADME, Neoplasm; details: read-out: Drug uptake
[5] = Drug uptake in rat 9L cells xenografted Fisher 344 rat brain measured per gram of tissue; format: ADME, cell-based; details: Fischer 344, rat, read-out: Drug uptake
[6] = Ratio of drug level in Fisher 344 rat brain to rat 9L tumor cells implanted in Fisher 344 rat after 15 mins; format: ADME, cell-based; details: 0.25 h
[7] = Ratio of drug level in Fisher 344 rat brain to rat 9L tumor cells implanted in Fisher 344 rat after 30 mins; format: ADME, cell-based; details: 0.5 h
[8] = Ratio of drug level in Fisher 344 rat brain to rat 9L tumor cells implanted in Fisher 344 rat after 60 mins; format: ADME, cell-based; details: 1 h
[9] = Ratio of drug level in Fisher 344 rat brain to rat 9L tumor cells implanted in Fisher 344 rat after 120 mins; format: ADME, cell-based; details: 2 h

SMILES: N[C@]1(C(=O)O)C[C@@H](C[18F])C1
Ratio [7]: 8.9

SMILES: N[C@]1(C(=O)O)C[C@H](C[18F])C1
Ratio [7]: 6.9

The remaining lines, values ahead:

Drug uptake (9L): 3.3%
tissue uptake at 0.25 h [1]: 0.51 %ID/g
tissue uptake at 0.5 h [2]: 0.66 %ID/g
tissue uptake at 1 h [3]: 0.65 %ID/g
tissue uptake at 2 h [4]: 0.6 %ID/g
tissue uptake [5]: 0.04 %ID/g
Ratio [6]: 12
Ratio [7]: 17
Ratio [8]: 14
Ratio [9]: 26
SMILES: N[C@@]1(C(=O)O)CC[C@@H]1[18F]

Ratio [7]: 7.6
SMILES: N[C@]1(C(=O)O)C[C@H]([18F])C1

Ratio [7]: 6.6
SMILES: N[C@]1(C(=O)O)C[C@@H]([18F])C1 [FLUCICLOVINE F18]
